Experimental findings from ChEMBL document CHEMBL2407044, “Synthesis, Antiplasmodial Activity, and β-Hematin Inhibition of Hydroxypyridone-Chloroquine Hybrids” (ACS Med Chem Lett, 2013) are described below.

The nature of assay [1]: Inhibition of beta-hematin formation after 60 mins relative to beta-hematin. Format: functional.
The test system of assay [2] is Plasmodium falciparum. The assay can be described thus: Antiplasmodial activity against chloroquine-resistant Plasmodium falciparum W2 assessed as parasite survival after 2 days by YOYO-1 staining-based flow cytometric analysis. As to conditions: W2, 48 h. It counts as functional, organism-based.
The subject of assay [3] is Plasmodium falciparum. Kind of assay: Antiplasmodial activity against chloroquine-sensitive Plasmodium falciparum 3D7 assessed as parasite growth inhibition after 24 hrs by [3H]-hypoxathine incorporation assay. Format: functional, organism-based.
For assay [4], the system named is Plasmodium falciparum. Kind of assay: Antiplasmodial activity against chloroquine-resistant Plasmodium falciparum K1 assessed as parasite growth inhibition after 24 hrs by [3H]-hypoxathine incorporation assay. Format: functional, organism-based.
The test system of another assay is KB. Kind of assay: Cytotoxicity against human KB cells after 72 hrs by Alamar blue assay. It counts as cell-based. Background: The colour change of resazurin is a common sign of viable cells or microbes.
Assay [5] can be described thus: Inhibition of beta-hematin formation at 10 times parental IC50 after 60 mins. It counts as functional.

Molecules are shown by their SMILES. Active and inactive are the calls of the source. No cut-off for these calls is given here.

As for `CCc1c(OC)c(=O)ccn1CCCCNc1ccnc2cc(Cl)ccc12`, the values for the IC50 (in assay [1]; with Plasmodium falciparum [2]) were 1.71 equiv and 210 nM, respectively.
Consider `CCc1c(OCc2ccccc2)c(=O)ccn1CCCCCCNc1ccnc2cc(Cl)ccc12` [listing 1 of 2 here], for which the IC50 turned out to be 10 nM in the assay with Plasmodium falciparum [3]; 100 nM in the assay on Plasmodium falciparum [4] (Plasmodium falciparum, K1); 7000 nM in the assay with KB (Homo sapiens, KB, 72 h).
`CCc1c(O)c(=O)ccn1CCNc1ccnc2cc(Cl)ccc12`: the IC50 in assay [1] turned out to be 1.1 equiv; in the assay with Plasmodium falciparum [3] it was 400 nM; with Plasmodium falciparum [4] (Plasmodium falciparum, K1), 890 nM; in the assay on Plasmodium falciparum [2] it was 1240 nM.
Turning to `Cc1c(OCc2ccccc2)c(=O)ccn1CCNc1ccnc2cc(Cl)ccc12`, the IC50 in assay [1] is 0.93 equiv; with Plasmodium falciparum [3] it was 490 nM; in the assay on Plasmodium falciparum [4] (Plasmodium falciparum, K1), 3150 nM; in the assay with KB (Homo sapiens, KB, 72 h) it was 54000 nM; in the assay with Plasmodium falciparum [2], 9930 nM.
`CCc1c(OCc2ccccc2)c(=O)ccn1CCCCNc1ccnc2cc(Cl)ccc12`: the IC50 in assay [1] is 0.19 equiv; in the assay on Plasmodium falciparum [3], 4 nM; with Plasmodium falciparum [4] (Plasmodium falciparum, K1) it was 130 nM; with KB (Homo sapiens, KB, 72 h), 9000 nM; in the assay with Plasmodium falciparum [2] it was 100 nM.
On to `CCCCCCCCn1ccc(=O)c(O)c1C`, for which the IC50 with Plasmodium falciparum [3] came out at 2380 nM; in the assay with Plasmodium falciparum [4] (Plasmodium falciparum, K1), 1800 nM.
As to `CCc1c(OCc2ccccc2)c(=O)ccn1CCCCCCNc1ccnc2cc(Cl)ccc12` [listing 2 of 2 here], the IC50 in assay [1] worked out at 0.16 equiv; in the assay with Plasmodium falciparum [4], 80 nM; with KB (kb) it was 4000 nM; in the assay on Plasmodium falciparum [2], 20 nM.
On to `CCc1c(O)c(=O)ccn1CCCCCCNc1ccnc2cc(Cl)ccc12`, for which the IC50 in assay [1] is 0.49 equiv; with Plasmodium falciparum [3] it was 80 nM; with Plasmodium falciparum [4] (Plasmodium falciparum, K1) it was 610 nM; with KB (Homo sapiens, KB, 72 h), 44000 nM; in the assay on Plasmodium falciparum [2] it was 90 nM.
For `Cc1c(OCc2ccccc2)c(=O)ccn1CCCNc1ccnc2cc(Cl)ccc12` the same measures were 0.49 equiv, 280 nM, 3570 nM, 67000 nM and 2150 nM.
On to `Cc1c(OCc2ccccc2)c(=O)ccn1CCCCCCNc1ccnc2cc(Cl)ccc12`, for which the IC50 in assay [1] was found to be 0.25 equiv; in the assay on Plasmodium falciparum [3], 35700 nM; with Plasmodium falciparum [4] (Plasmodium falciparum, K1), 4380 nM; with KB (Homo sapiens, KB, 72 h) it was 158000 nM; in the assay on Plasmodium falciparum [2], 390 nM.
Regarding `CCc1c(O)c(=O)ccn1CCCCNc1ccnc2cc(Cl)ccc12`, the IC50 in assay [1] came out at 0.98 equiv; in the assay on Plasmodium falciparum [3], 50 nM; in the assay on Plasmodium falciparum [4] (Plasmodium falciparum, K1), 270 nM; with KB (Homo sapiens, KB, 72 h) it was 76000 nM; in the assay on Plasmodium falciparum [2] it was 160 nM.
As to `CCCCCCCCn1ccc(=O)c(OCc2ccccc2)c1C`, the inhibition result in assay [5] is “inactive”.
Take `Cc1c(O)c(=O)ccn1CCCCNc1ccnc2cc(Cl)ccc12`: the IC50 in assay [1] was 0.66 equiv; with Plasmodium falciparum [3], 30 nM; in the assay with Plasmodium falciparum [4] (Plasmodium falciparum, K1) it was 70 nM; in the assay with KB (Homo sapiens, KB, 72 h), 185000 nM; with Plasmodium falciparum [2], 80 nM.
For `COc1c(C)n(CCCCNc2ccnc3cc(Cl)ccc23)ccc1=O` the same measures were 0.75 equiv, 70 nM, 220 nM, 27000 nM and 760 nM.
As for `Cc1c(OCc2ccccc2)c(=O)ccn1C`, the inhibition entry in assay [5] is “inactive”.
Turning to `CCc1c(O)c(=O)ccn1CCCNc1ccnc2cc(Cl)ccc12`, the IC50 in assay [1] was 1.3 equiv; with Plasmodium falciparum [3] it was 120 nM; in the assay with Plasmodium falciparum [4] (Plasmodium falciparum, K1), 380 nM; with KB (Homo sapiens, KB, 72 h), 55000 nM; in the assay on Plasmodium falciparum [2], 540 nM.
The like results for `COc1c(C)n(CCCCCCNc2ccnc3cc(Cl)ccc23)ccc1=O` were, in that order, 1.07 equiv, 130 nM, 2800 nM, 47000 nM and 90 nM.
The like results for `CCc1c(OCc2ccccc2)c(=O)ccn1CCCNc1ccnc2cc(Cl)ccc12` were, in that order, 0.41 equiv, 120 nM, 71600 nM, 15000 nM and 2320 nM.
In the case of `CCN(CC)CCCC(C)Nc1ccnc2cc(Cl)ccc12` (stereo not drawn) [CHLOROQUINE], the IC50 came out at 1.9 equiv in assay [1] and 34000 nM with KB (Homo sapiens, KB, 72 h).
With `Cc1c(O)c(=O)ccn1CCCCCCNc1ccnc2cc(Cl)ccc12`, the IC50 in assay [1] was found to be 0.18 equiv; with Plasmodium falciparum [3] it was 390 nM; in the assay with Plasmodium falciparum [4] (Plasmodium falciparum, K1), 160 nM; with KB (Homo sapiens, KB, 72 h), 4000 nM; in the assay with Plasmodium falciparum [2], 70 nM.
`CCc1c(OC)c(=O)ccn1CCCCCCNc1ccnc2cc(Cl)ccc12`: the IC50 in assay [1] worked out at 0.47 equiv; with Plasmodium falciparum [2], 220 nM.
For `Cc1c(OCc2ccccc2)c(=O)ccn1C(C)C`, the inhibition entry in assay [5] was “inactive”.
Consider `Cc1c(OCc2ccccc2)c(=O)ccn1CCCCNc1ccnc2cc(Cl)ccc12`, for which the IC50 amounted to 0.27 equiv in assay [1]; 50 nM with Plasmodium falciparum [3]; 2200 nM in the assay with Plasmodium falciparum [4] (Plasmodium falciparum, K1); 119000 nM with KB (Homo sapiens, KB, 72 h); 1120 nM in the assay on Plasmodium falciparum [2].
For `CCc1c(OCc2ccccc2)c(=O)ccn1CCNc1ccnc2cc(Cl)ccc12` the same measures were 0.5 equiv, 950 nM, 8430 nM, 51000 nM and 2590 nM.
Turning to `Cc1c(O)c(=O)ccn1CCNc1ccnc2cc(Cl)ccc12`, the IC50 in assay [1] was found to be 2.9 equiv; with Plasmodium falciparum [3], 10800 nM; in the assay on Plasmodium falciparum [4] (Plasmodium falciparum, K1), 32600 nM; in the assay on Plasmodium falciparum [2], 280 nM.
Take `COc1cc([C@@H]2c3cc4c(cc3[C@H](O)[C@H]3COC(=O)[C@H]23)OCO4)cc(OC)c1OC` [PODOFILOX]: the IC50 with KB (Homo sapiens, KB, 72 h) was 0.7 nM.
As for `CCCCCCn1ccc(=O)c(OCc2ccccc2)c1C`, the inhibition entry in assay [5] was “inactive”.
